# Experimental data reported in patent publication US6479670B1, “Selective retinoid acid receptor agonists” (Hoffmann-La Roche Inc., priority 1999, dated 2002).
# Tested on: rat model of elastase-induced emphysema
# Test: Repair of alveoli in elastase-induced emphysema (rat model), morphometric analysis
# Type: in vivo, male Sprague Dawley rats
# Conditions: elastase-induced emphysema in rats
# Procedure: RAR selective agonists were evaluated for its effects on alveolar repair in the rat model of elastase-induced emphysema in rats (Massaro et al. Nature (Medicine, 1997, 3, 675)). Animals were divided into treatment groups of approximately eight. Lung inflammation and alveolar damage was induced in male Sprague Dawley rats by a single instillation of pancreatic elastase(porcine derived, Calbiochem) 2 U/gram body mass. Three weeks post injury all-trans retinoic acid or RAR agonist was dissolved in dimethylsulfoxide (20 mg/ml) and stored at −20 C. Fresh working stocks were prepared fresh daily by dilution in PBS to a final concentration of 2 mg/ml. Animals treated with all-trans retinoic acid (0.5 mg/Kg ip) were dosed once daily by intraperitoneal injection, starting 21 days post injury. Control groups were challenged with elastase and 21 days later treated with Vehicle (DMSO/PBS) for 14 days. Animals were sacrificed 24 hours after the last dose of by exsanguination under deep anesthesia.
# The lungs were inflated with 10% neutral buffered formalin by intratracheal instillation at a constant rate (1 ml/gram body mass/min). The lung was excised and immersed in fixative for 24 hours prior to processing. Standard methods were used to prepare 5 um paraffin sections. Sections were stained with Hematoxylin and Eosin (H%E). Computerized Morphometric analysis was performed to determine the average alveolar size and alveolar number (Table 1).
compound,measurement,setting,value
"COCC1(C)CCCOc2cc(C#Cc3ccc(C(=O)O)cc3)ccc21 (racemic) [A, 4-(5-methoxymethyl-5-methyl-2,3,4,5-tetrahydro-1-benzo[b]oxepin-8-yl-ethynyl)-benzoic acid]",% repair area,0.1 mg/kg p.o.,45.2%
same,% repair area,0.3 mg/kg p.o.,51.3%
same,% repair area,0.5 mg/kg i.p.,58%
